Earlier results in patent US20190383817A1, “PREDICTING RESPONSE TO IMMUNOMODULATORY DRUGS (IMIDS) IN MULTIPLE MYELOMA PATIENTS” (SKYLINEDX B.V., priority 2016, published 2019).

What was measured:
[1] = test system: IKAROS transcription factors; conditions: compared with thalidomide
MM patients = conditions: compared against non-Bortezomib containing regimes such as VAD
CRBN = conditions: comparison among thalidomide, lenalidomide, pomalidomide

Row | SMILES | efficiency at targeting IKAROS transcription factors for degradation by CRBN [1] | Overall Survival (OS) (MM patients) | Progression Free Survival (PFS) (MM patients) | binding to CRBN (CRBN)
1 | Cc1cccc2c1C(=O)N(C1CCC(=O)NC1=O)C2=O (stereo not drawn) [2-(2,6-dioxopiperidin-3-yl)-4-methylisoindoline-1,3-dione] | more efficient |  |  | 
2 | CC(C)C[C@H](NC(=O)[C@H](Cc1ccccc1)NC(=O)c1cnccn1)B(O)O [Bortezomib] |  | significantly prolonged | significantly prolonged | 
3 | Nc1cccc2c1C(=O)N(C1CCC(=O)NC1=O)C2=O (stereo not drawn) [pomalidomide, 4-Amino-2-(2,6-dioxopiperidin-3-yl)isoindole-1,3-dione] | more efficient |  |  | bind similarly to CRBN
4 | O=C1CCC(N2C(=O)c3ccccc3C2=O)C(=O)N1 (stereo not drawn) [thalidomide, 2-(2,6-dioxopiperidin-3-yl)-1H-isoindole-1,3(2H)-dione] |  |  |  | bind similarly to CRBN
